# Experimental data taken from patent US11691971B2, “Naphthyridinone compounds as JAK2 V617F inhibitors” (Incyte Corporation, priority 2020, dated 2023).
# Counter-ions that a name gives are not always drawn.
# Columns and labels:
# [1] = molecular target: pseudo-kinase domain (JH2) of human Wild Type JAK2 (Homo sapiens (Human), UniProt O60674, F794H/W659A/W777A); test: JAK2 LanthaScreen JH2-WT Binding Assay; conditions: JAK2 JH2-WT 0.145 nM, 50 nM tracer, 1 hour at 25° C.; read-out: JH2BIND_WT IC50
# Sequence of pseudo-kinase domain (JH2) of human Wild Type JAK2 (O60674 536-812 W659A/W777A/F794H): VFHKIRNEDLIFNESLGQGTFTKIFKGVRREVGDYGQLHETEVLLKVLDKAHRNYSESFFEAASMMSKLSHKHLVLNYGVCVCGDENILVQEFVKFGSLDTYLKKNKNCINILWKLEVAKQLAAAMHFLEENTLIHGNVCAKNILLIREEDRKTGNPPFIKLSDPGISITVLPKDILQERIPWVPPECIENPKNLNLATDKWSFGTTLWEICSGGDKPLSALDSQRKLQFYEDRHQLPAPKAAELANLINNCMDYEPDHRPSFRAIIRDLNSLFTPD
# Method: Example B. JAK2 LanthaScreen JH2-WT Binding Assay
# (§1) The assay was conducted in black 384-well polystyrene plates in a final reaction volume of 20 μL. JAK2 JH2-WT (0.145 nM) was incubated with compounds (100 nL serially diluted in DMSO) in the presence of 50 nM Fluorescent JAK2-JH2 Tracer (MedChem Express Catalog #HY-102055) and 0.25 nM Streptavidin-Tb cryptate (Cisbio Part #610SATLB) in assay buffer (50 mM Tris, pH=7.5, 10 mM MgCl2, 0.01% Brij-35, 0.1% BSA, 1 mM EGTA, 5% Glycerol and 5 mM DTT). Non-specific binding was accessed in the presence of 2 mM ATP. After incubation for 1 hour at 25° C., LanthaScreen signals were read on a PHERAstar FS plate reader (BMG LABTECH). Data was analyzed with IDBS XLfit and GraphPad Prism 5.0 software using a four parameter dose response curve to determine IC50 for each compound.
# [2] = molecular target: catalytic domain (JH1, amino acids 808-1132) of human JAK2 (Homo sapiens (Human), UniProt O60674); test: JAK2 HTRF Enzyme Activity Assay; type: biochemical; conditions: ATP 30 μM, 60 minutes at 25° C.; read-out: ENZ 30UMATP IC50
# Sequence of catalytic domain (JH1, amino acids 808-1132) of human JAK2 (O60674 808-1132): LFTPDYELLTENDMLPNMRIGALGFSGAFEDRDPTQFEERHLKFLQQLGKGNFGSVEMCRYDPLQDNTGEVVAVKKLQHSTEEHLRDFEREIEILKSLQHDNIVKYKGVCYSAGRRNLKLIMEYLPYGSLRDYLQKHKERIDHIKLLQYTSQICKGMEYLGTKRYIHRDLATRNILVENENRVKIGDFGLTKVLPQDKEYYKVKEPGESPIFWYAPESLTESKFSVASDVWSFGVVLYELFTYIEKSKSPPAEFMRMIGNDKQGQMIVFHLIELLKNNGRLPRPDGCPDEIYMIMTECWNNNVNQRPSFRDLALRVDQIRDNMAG
# Method: Example D. JAK2 HTRF Enzyme Activity Assay
# JAK2 enzyme activity assays utilize catalytic domain (JH1, amino acids 808-1132) of human JAK2 expressed as N-terminal His-tagged protein in a baculovirus expression system (BPS Bioscience, Catalog #40450). The assays was conducted in black 384-well polystyrene plates in a final reaction volume of 20 μL. JAK2 (0.015 nM) was incubated with compounds (100 nL serially diluted in DMSO) in the presence of ATP (30 μM or 1 mM) and 500 nM Biotin-labeled […] (SEQ ID NO.: 1) peptide (BioSource International, custom synthesis) in assay buffer (50 mM Tris, pH=7.5, 10 mM MgCl2, 0.01% Brij-35, 0.1% BSA, 1 mM EGTA, 5% Glycerol and 5 mM DTT) for 60 minutes at 25° C. The reactions were stopped by the addition of 10 μL of detection buffer (50 mM Tris, pH 7.8, 0.5 mg/mL BSA, 150 mM NaCl), supplemented with EDTA, LANCE Eu-W1024 anti-phosphotyrosine (PY20), (PerkinElmer, Catalog #AD0067) and Streptavidin SureLight APC (PerkinElmer Catalog #CR130-100), for a final concentration of 15 mM, 1.5 nM and 75 nM, respectively. HTRF signals were read after 30 minutes incubation at room temperature on a PHERAstar FS plate reader (BMG LABTECH). Data was analyzed with IDBS XLfit and GraphPad Prism 5.0 software using a four parameter dose response curve to determine IC50 for each compound.
# [3] = molecular target: catalytic domain (JH1, amino acids 826-1132) of human JAK2 (Homo sapiens (Human), UniProt O60674); test: JAK2 LanthaScreen JH1 Binding Assay; conditions: JAK2 JH1 1.5 nM, 50 nM tracer, 2 hours at 25° C.; read-out: JH1BIND IC50
# Sequence of catalytic domain (JH1, amino acids 826-1132) of human JAK2 (O60674 826-1132): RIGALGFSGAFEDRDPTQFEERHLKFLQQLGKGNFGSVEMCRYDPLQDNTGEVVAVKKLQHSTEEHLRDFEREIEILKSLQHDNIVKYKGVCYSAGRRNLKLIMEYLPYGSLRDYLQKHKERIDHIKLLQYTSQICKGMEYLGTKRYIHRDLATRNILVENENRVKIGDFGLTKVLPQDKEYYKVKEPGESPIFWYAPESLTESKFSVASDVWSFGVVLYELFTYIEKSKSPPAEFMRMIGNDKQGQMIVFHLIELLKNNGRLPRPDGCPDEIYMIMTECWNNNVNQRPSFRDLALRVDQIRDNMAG
# Method: Example A. JAK2 LanthaScreen JH1 Binding Assay
# as §1, with “JAK2 JH1 binding assay utilizes catalytic domain (JH1, amino acids 826-1132) of human JAK2 expressed as N-terminal FLAG-tagged, biotinylated protein in a baculovirus expression system (Carna Biosciences, Product #08-445-20N). The” for “The”, “JH1 (1.5” for “JH2-WT (0.145”, “fluorescent JAK2-JH1 tracer” for “Fluorescent JAK2-JH2 Tracer (MedChem Express Catalog #HY-102055)”, “0.5” for “0.25”, “2 hours” for “1 hour”
# [4] = molecular target: pseudo-kinase domain (JH2) of human V617F mutant JAK2 (Homo sapiens (Human), UniProt O60674, F794H/V617F/W659A/W777A); test: JAK2 LanthaScreen JH2-V617F Binding Assay; conditions: JAK2 JH2-V617F 0.26 nM, 50 nM tracer, 1 hour at 25° C.; read-out: JH2BINDING_V617F IC50
# Sequence of pseudo-kinase domain (JH2) of human V617F mutant JAK2 (O60674 536-812 V617F/W659A/W777A/F794H): as the sequence (O60674 536-812 W659A/W777A/F794H) above, with V82F counted along it
# Method: The assay was conducted in black 384-well polystyrene plates in a final reaction volume of 20 μL. […] Non-specific binding was accessed in the presence of 2 mM ATP. After incubation for 1 hour at 25° C., LanthaScreen signals were read on a PHERAstar FS plate reader (BMG LABTECH). Data was analyzed with IDBS XLfit and GraphPad Prism 5.0 software using a four parameter dose response curve to determine IC50 for each compound.
structure (smiles),measurement,setting,value
"COc1cc(-c2cnn(C3CCOCC3)c2)ccc1Nc1cc(NC(=O)C2CC2)nc2cc[nH]c(=O)c12 [Example 7, N-(4-((2-Methoxy-4-(1-(tetrahydro-2H-pyran-4-yl)-1H-pyrazol-4-yl)phenyl)amino)-5-oxo-5,6-dihydro-1,6-naphthyridin-2-yl)cyclopropanecarboxamide Trifluoroacetic Acid Salt]",IC50,[1],1000 to 10000 nM
same,IC50,[2],1000 to 10000 nM
same,IC50,[3],1000 to 10000 nM
same,IC50,[4],> 10000 nM
"CSc1c(Nc2cc(NC(=O)C3CC3)nc3cc[nH]c(=O)c23)cccc1-c1cnn(C2CCOCC2)c1 [Example 12, N-(4-((2-(Methylthio)-3-(1-(tetrahydro-2H-pyran-4-yl)-1H-pyrazol-4-yl)phenyl)amino)-5-oxo-5,6-dihydro-1,6-naphthyridin-2-yl)cyclopropanecarboxamide Trifluoroacetic Acid Salt]",IC50,[1],500 to 1000 nM
same,IC50,[2],> 10000 nM
same,IC50,[3],> 10000 nM
same,IC50,[4],500 to 1000 nM
"Cc1[nH]ncc1-c1c(Cl)cccc1Nc1cc(NC(=O)C2CC2)nc2cc[nH]c(=O)c12 [Example 17, N-(4-((3-Chloro-2-(5-methyl-1H-pyrazol-4-yl)phenyl)amino)-5-oxo-5,6-dihydro-1,6-naphthyridin-2-yl)cyclopropanecarboxamide Trifluoroacetic Acid Salt]",IC50,[1],500 to 1000 nM
same,IC50,[2],1000 to 10000 nM
same,IC50,[3],1000 to 10000 nM
same,IC50,[4],1000 to 10000 nM
"O=C(Nc1cc(Nc2cccc(C(F)(F)F)c2-c2cn[nH]c2)c2c(=O)[nH]ccc2n1)C1CC1 [Example 18, N-(4-((2-(1H-pyrazol-4-yl)-3-(trifluoromethyl)phenyl)amino)-5-oxo-5,6-dihydro-1,6-naphthyridin-2-yl)cyclopropanecarboxamide Trifluoroacetic Acid Salt]",IC50,[1],500 to 1000 nM
same,IC50,[2],> 10000 nM
same,IC50,[3],> 10000 nM
same,IC50,[4],500 to 1000 nM
"COc1c(Nc2cc(NC(=O)C3CC3)nc3cc[nH]c(=O)c23)cccc1-c1cnn(C(C)C(N)=O)c1 (centres unmarked) [Example 8, N-(4-((3-(1-(1-Amino-1-oxopropan-2-yl)-1H-pyrazol-4-yl)-2-methoxyphenyl)amino)-5-oxo-5,6-dihydro-1,6-naphthyridin-2-yl)cyclopropanecarboxamide Trifluoroacetic Acid Salt]",IC50,[1],≤ 100 nM
same,IC50,[2],100 to 500 nM
same,IC50,[3],1000 to 10000 nM
same,IC50,[4],≤ 100 nM
"CS(=O)(=O)c1c(Nc2cc(NC(=O)C3CC3)nc3cc[nH]c(=O)c23)cccc1-c1cnn(C2CCOCC2)c1 [Example 13, N-(4-((2-(Methylsulfonyl)-3-(1-(tetrahydro-2H-pyran-4-yl)-1H-pyrazol-4-yl)phenyl)amino)-5-oxo-5,6-dihydro-1,6-naphthyridin-2-yl)cyclopropanecarboxamide Trifluoroacetic Acid Salt]",IC50,[1],1000 to 10000 nM
same,IC50,[2],> 10000 nM
same,IC50,[3],> 10000 nM
same,IC50,[4],1000 to 10000 nM
"Cc1[nH]ncc1-c1c(Nc2cc(NC(=O)C3CC3)nc3cc[nH]c(=O)c23)cccc1C(F)(F)F [Example 19, N-(4-((2-(5-Methyl-1H-pyrazol-4-yl)-3-(trifluoromethyl)phenyl)amino)-5-oxo-5,6-dihydro-1,6-naphthyridin-2-yl)cyclopropanecarboxamide Trifluoroacetic Acid Salt]",IC50,[1],1000 to 10000 nM
same,IC50,[2],> 10000 nM
same,IC50,[3],> 10000 nM
same,IC50,[4],1000 to 10000 nM
"COc1c(Nc2cc(NC(=O)C3CC3)nc3cc[nH]c(=O)c23)cccc1-c1cn[nH]c1 [Example 1, N-(4-((2-Methoxy-3-(1H-pyrazol-4-yl)phenyl)amino)-5-oxo-5,6-dihydro-1,6-naphthyridin-2-yl)cyclopropanecarboxamide]",IC50,[1],≤ 100 nM
same,IC50,[2],1000 to 10000 nM
same,IC50,[3],1000 to 10000 nM
same,IC50,[4],100 to 500 nM
